Non-standard residues stand in square brackets, D forms with d. Residues, ends and D or L forms follow the SMILES beside them.
SMILES: CC[C@@H](C)[C@@H](NC(=O)[C@@H](C)NC(=O)[C@@H](CCC(=O)O)NC(=O)[C@H](NC(=O)[C@@H](CC(C)C)NC(=O)[C@@H](CCC(=O)O)NC(=O)CNC(=O)[C@@H](C)NC(=O)[C@@H](C)NC(=O)[C@@H](CC(C)C)NC(=O)[C@H](NC(=O)[C@@H](Cc1ccccc1)NC(=O)[C@@H](CC(C)C)NC(=O)[C@@H](CCC(=O)O)NC(=O)[C@@H](CC(C)C)NC(=O)[C@@H](Cc1ccccc1)NC(=O)[C@@H](C)NC(=O)[C@@H](CCCCN)NC(=O)CNC(=O)[C@H](N)CCCNC(=N)N)[C@H](C)CC)[C@H](C)CC)C(=O)N[C@H](CC(=O)O)C(=O)N[C@H](CCCNC(=N)N)C(=O)N[C@@H](C(=O)N[C@H](Cc1ccccc1)C(=O)N[C@@H](C(=O)NCC(=O)N[C@H](CCC(=O)O)C(=O)N[C@H](C)C(=O)N[C@H](Cc1c[nH]cn1)C(=O)O)[C@H](C)O)[C@H](C)O (H-[dR]G[dK][dA][dF][dL][dE][dL][dF][dI][dL][dA][dA]G[dE][dL][dI][dE][dA][dI][dD][dR][dT][dF][dT]G[dE][dA][dH]-OH)
- peptide remaining after proteinase K exposure: > 88%

From paper PMC11117309
